Values quoted from earlier work as cited in patent US9376461B2, “Non-enzymatic synthesis of O-acetyl-ADP-ribose and analogues thereof” (GlaxoSmithKline LLC, priority 2011, dated 2016).

Test system: starfish oocyte maturation
Conditions: infusion (microinjection) of OAADPR, presumably as the mixture of 2′ and 3′ isomers

## 2′- and 3′-O-Acetyl-ADP-ribose [OAADPR]
  effect on starfish oocyte maturation: delayed or halted
